Several values for one entry are separate records, joined by “and”; a condition that tells them apart may be missing. Equal values may be shown once.
What was measured:
[1] = system: rat SCI model; assay: Western blot and GABA ELISA of rat spinal cord tissue; type: in vivo; settings: PI 10w
Procedure: Approximately 24 h after drug treatment, primary mouse spinal cord astrocytes or spinal cord tissues were lysed in RIPA buffer (MB030-0050, ROCKLAND) containing protease and phosphatase inhibitors (1861280, Thermo Fisher Scientific). The protein concentration was measured using the Pierce™ BCA Protein Assay Kit (Thermo Fisher Scientific). Each sample was then used separately for Western blot or GABA ELISA analysis. Western blot analysis was performed following established protocols,[73],[74] with 20 μg of spinal cord tissue or 10 μg of astrocyte protein samples were loaded onto SDS-PAGE gels, transferred to PVDF membranes, and blocked with 5% non-fat milk. The membranes were incubated overnight at 4 °C with primary antibodies, including rabbit anti-MAOB (1:1000, Abcam), rabbit anti-BDNF (1:1000, Abcam), mouse anti-TrkB (1:1000, R&D Systems), and rabbit anti-β-actin (1:1000, Cell Signaling Technology). […] The bands were visualized using enhanced chemiluminescence, and band intensity was quantified using ImageJ software. For enzyme-linked immunosorbent assay (ELISA), GABA quantification was performed using an ELISA kit (BA-E-2500, ImmuSmol) according to the manufacturer’s instructions, utilizing 20 μg of protein extracted from spinal cord tissues.

[2] = Phase 1 clinical trial: pharmacokinetics
Procedure: All subjects provided consent for this phase 1 clinical trial study. The study comprised 11 cohorts: single ascending dose (SAD) and multiple ascending dose (MAD) studies. […] Cohort 3 employed a two-period crossover design with a 14-day washout.
The parameters related to plasma concentrations were calculated via non-compartmental analysis using the linear-up log-down method in Phoenix WinNonlin software version 8.3 (Certara, US). The parameters related to urine concentrations were calculated using the linear trapezoidal linear interpolation method.
In the SAD study, plasma samples were collected using sodium K2-EDTA tubes at pre-dose, 0.33, 0.75, 1, 2, 3, 4, 6, 8, 12, 24, 48, 72, 96, 120, and 144 h after dosing. Urine samples were collected up to 72 h post-dose. In the MAD study, plasma samples were collected at pre-dose, 0.33, 0.75, 1, 2, 3, 4, 6, 8, 12 and 24 h after the administration of the first dose, and at pre-dose of the third to seventh doses. After the administration of the seventh dose, plasma samples were collected at the same time points as after the first dose, with additional sampling points at 48, 72, 96, 120, and 144 h post-dose. Urine samples were collected for 24 h after the administration of the first dose and for 72 h after the seventh dose.
For the clinical trial, dose proportionality of the PK parameters (Cmax, Cmax,ss, AUClast, and AUCτ) was assessed using power model using the following equation: log (PK parameter) = β0 + β1 log (dose). The regression slope (β1) and the intercept (β0) were estimated with 95% confidence interval (CI) using PROC REG in SAS version 9.4. The PK parameters were considered dose-proportional if the 95% CI of the β1 included 1. […] Using a linear mixed effect model, the logarithmized PK parameters were analyzed with the high-gat meal as a fixed effect and inter-individual differences as a random effect. The GMR and its 90% CI of the PK parameters of the high-fat meal were calculated relative to those in the fasting state. […] In elderly subjects, the same analyses were performed and compared to those of healthy younger adults.

[3] = system: APP/PS1 transgenic mice; assay: Cognitive tests in APP/PS1 transgenic mice; type: in vivo, mouse
[4] = cynomolgus monkey, in vivo, po
[5] = system: GABAA receptor-mediated currents from lamina II dorsal horn neurons; assay: Tonic GABA current recording; type: in vivo, rat; settings: SCI + KDS 2w, PI 10w
[6] = Blood chemistry and liver function in monkey SCI model; type: in vivo, cynomolgus macaques (Macaca fascicularis)
Procedure: Blood samples were collected from the animals via the radial or femoral vein at three time points: 2 days, 2 weeks, and 5 weeks post-injury. All the animals were fasted for approximately 16 h prior to each collection, with water provided ad libitum. Approximately 2.0 mL of blood was drawn and placed into tubes without anticoagulant and left at room temperature for at least 90 min. The samples were then centrifuged at 3000 rpm for 10 min at room temperature to separate the serum. Finally, the serum samples were analyzed for creatinine (CREA), alkaline phosphatase (ALP), gamma-glutamyl transpeptidase (GGT), total bilirubin (TBIL), ALB, ALT, and aspartate aminotransferase (AST) levels. These biochemical parameters were measured using a TBA 120FR chemistry analyzer (Toshiba Co.).

[7] = system: diphtheria toxin receptor-inducible transgenic mice; type: in vivo, mouse
[8] = Preclinical pharmacokinetics in monkeys; type: in vivo, Cynomolgus monkey; settings: for AUC(0-t) / Vd/F / Tmax / AUC(0-inf) / CL/F / half-life: cynomolgus monkey, in vivo
Procedure: In a pharmacokinetic study, plasma PK parameters were measured after a single oral administration of […]
dose group and at 4 to 6 hours after administration in the 30 mg/kg dose group. In the elimination phase, the […]
Systemic exposure (AUClast) to the test substance was 30587 and 80770 ng*hr/mL, respectively. […]

In the case of `CS(=O)(=O)O.C[C@H](NCc1ccc(-c2ccc(C(F)(F)F)cc2)cc1)C(N)=O` [KDS2010, (S)-2-(((4’-Trifluoromethylbiphenyl-4-yl)methyl)amino)propanamide methane-sulfonate], the “GABA levels (ELISA)” value ([1]; SCI + KDS 1 d/Re) is reported as “significant reduction”, the “MAOB protein level (Western blotting)” value ([1]; SCI+KDS 1d/Re vs SCI+V) is reported as “significantly reduced” and the “increase of systemic exposure (AUCinf and AUCτ,ss) with dose” value ([2]; 60 mg to 480 mg) is reported as “dose-proportional”. For the same compound, the “higher exposure in elderly subjects” value ([2]; 120 mg for 7 days, elderly vs young) was “approximately 25%”, the “pharmacokinetic profiles, Korean vs Caucasian subjects” value ([2]; 60, 120, 240, 480 mg at steady state) was “similar” and the “unchanged drug excreted in the urine” value ([2]; healthy humans) was “Less than 1%”. For the same compound, the AUC(0-inf) ([2]; human, in vivo, 120 mg) was 13900 ng·h/mL, the “effect of a high-fat meal on systemic exposure (Cmax and AUCinf)” value ([2]; human, in vivo, 120 mg) was “did not affect” and the half-life ([2]; human, in vivo, po) was 44.2 h. For the same compound, the “time to maximum plasma concentration (Cmax)” value ([2]; human, in vivo, po) was 3 h, the passive avoidance test ([3]; 1 mg/kg and 10 mg/kg, repeated administration for 2 weeks, vs APP/PS1 control group) was “statistically significant cognitive function improvement effect” and the “Morris water maze test” value ([3]; 10 mg/kg for 27 to 37 days) was “statistically significant improvement”. For the same compound, the cognitive function ([3]; 4-week repeated dosing test) was “statistically significant cognitive function effect”, the approximate lethal dose [4] was no less than 100 mg/kg and the “tonic GABA current density” value [5] was “significantly recovered”. For the same compound, the “signs of hepatic and muscle stress” value ([6]; 3 mpk) was “no signs of stress”, the “creatine kinase (CK) and alanine transaminase (ALT) levels” value ([6]; 10 mpk, PI 2w) was “transient increases” and the “CK and ALT levels” value ([6]; 10 mpk, PI 5w) was “returned to normal”. The “albumin (ALB) levels” value ([6]; 10 mpk, PI 5w) was “moderate reduction”, the “No-Observed-Adverse-Effect Level (NOAEL)” value ([6]; monkey SCI model) was 3 mpk and the brain atrophy [7] was “restored to the level of control group”. For the same compound, the “neurofilament (NF)” value [7] was “reducing”, the “neuronal factors NeuN and MAP2” value [7] was “increasing” and the survival [7] was “increase in survival”. The AUC(0-t) [8] was roughly 13000 ng·h/mL, the Vd/F ([8]; iv, 5 mg/kg) was 3.714 ± 0.609 L/kg and the “increase in the AUC, 30 mg/kg vs 10 mg/kg” value ([8]; cynomolgus monkeys) was 5 fold and ~ 4.6 fold. The “increase rate of Cmax vs dose” value ([8]; male monkeys, 10 and 30 mg/kg) was “slightly lower”, the Tmax ([8]; male) was 2 to 6 h and the AUC(0-inf) ([8]; male, po, 10 mg/kg) was 43600 ng·h/mL. The CL/F ([8]; male, po, 10 mg/kg) was 3.8 mL/min/kg, the Vd/F ([8]; male, po, 10 mg/kg) was 4.49 ± 0.61 L/kg and the half-life ([8]; male, po, 10 mg/kg, t1/2) was 13.7 ± 0.48 h. The AUC(0-inf) ([8]; male, po, 30 mg/kg) was 202000 ± 76800 ng·h/mL, the CL/F ([8]; male, po, 30 mg/kg) was 2.58 mL/min/kg and the Vd/F ([8]; male, po, 30 mg/kg) was 6.27 ± 1.67 L/kg. It also gave a half-life ([8]; male, po, 30 mg/kg, t1/2) of 16.9 h, an AUC(0-inf) ([8]; male, cynomolgus, po, 10 mg/kg) of 43600 ng·h/mL and an AUC(0-t) ([8]; male, cynomolgus, po, 10 mg/kg) of 30600 ng·h/mL. It also gave a Tmax ([8]; male, cynomolgus, po, 10 mg/kg) of 2 h, a half-life ([8]; male, cynomolgus, po, 10 mg/kg, mean half-life (t1/2)) of 13.7 h and a half-life ([8]; male, cynomolgus, po, 10 mg/kg, t1/2) of 13.7 h. For the same compound, the AUC(0-inf) ([8]; male, cynomolgus, po, 30 mg/kg) was roughly 202000 ng·h/mL, the AUC(0-t) ([8]; male, cynomolgus, po, 30 mg/kg) was 80800 ng·h/mL and the Tmax ([8]; male, cynomolgus, po, 30 mg/kg) was 4 to 6 h. The half-life ([8]; male, cynomolgus, po, 30 mg/kg, mean half-life (t1/2)) was 31.1 h and the half-life ([8]; male, cynomolgus, po, 30 mg/kg, t1/2) was roughly 31.1 h.

Reference: paper PMC12423301, “Astrocytic monoamine oxidase B (MAOB)–gamma-aminobutyric acid (GABA) axis as a molecular brake on repair following spinal cord injury” (Signal Transduction and Targeted Therapy, 2025)
